Laboratory results: PubChem BioAssay (NCI)
“And” between values parts separate entries of the source, which are not always exact repeats. Equal entries are not always repeated.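 96-well plates; 48 h exposure; 5 concentrations. Endpoints by linear interpolation between flanking doses. Not reached: highest tested concentration assigned. GI50: concentration for 50% inhibition of growth. At the TGI there is no net growth.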

test system: MDA-MB-468 breast; assay: DTP human tumour cell line panel, 48 h

SMILES	GI50	TGI
Clc1ccc(C2CC(c3cccc(Nc4ccncc4)c3)=NN2c2ccccc2)cc1 (centres undefined)	1.51 µM	3.05 µM
c1ccc(COCC[P+](c2ccccc2)(c2ccccc2)c2ccccc2)cc1	0.239 µM	1.95 µM
Cc1cc2c(C(=O)NCC#N)cccc2n1-c1nc2c(c(NCc3ccccc3)n1)CCCC2	0.206 µM	0.422 µM
CS(=O)(=O)O[C@H]1C(=O)N(c2cc3c4ccccc4ccc3c3ccccc23)[C@@H]1c1ccccn1	0.269 µM	5.27 µM
CC(C)(C)[Si](C)(C)OC1[C@@H](O[Si](C)(C)C(C)(C)C)[C@@H](CNC(=O)NC(=O)NC(=O)CCl)O[C@H]1n1cnc2c(NC(=O)Nc3ccccc3)ncnc21 (some centres undefined)	3.91 µM	10.5 µM
COC1=CC(c2ccc[nH]2)=N/C1=C\c1[nH]c(C)c(C(=O)Oc2ccccc2)c1C	0.368 µM	1.94 µM
CCCCCCNC(=O)Oc1ccc(/C(=C(/C)c2ccc(Cl)cc2)c2ccc(OCCN3CCCC3)cc2)cc1	1.66 µM	3.17 µM
Cc1cncc(-c2nc(NCCc3c[nH]c4ccccc34)c3ncn(C(C)C)c3n2)c1	3.02 µM	10.9 µM
CN(C)c1ccc(/C=C(\C#N)c2ccccc2)cc1	0.34 µM and 0.293 µM and 0.728 µM	
CCC(CC)c1cc(N[C@H]2CC[C@H](N)C2)n2nccc2n1	0.438 µM	2.39 µM
CC(C)n1nc(C#Cc2cccc(O)c2)c2c(N)ncnc21	3.62 µM and 2.22 µM	23.8 µM and 5.51 µM
Nc1c(C(=O)c2ccc(C#CCN3CCOCC3)cc2)cnn1-c1ccc(F)cc1	> 25 µM	> 25 µM
NS(=O)(=O)c1ccc(N=Nc2c(O)[nH]c3ccc(C(=O)NCCc4cnc[nH]4)cc23)cc1	> 25 µM	> 25 µM
O=C(Nc1ccc(Oc2ccc(NC(=O)Nc3ccccc3Cl)cc2)cc1)Nc1ccccc1Cl	11 µM	49.6 µM
COc1ccc(/C(=C/c2ccc3ccccc3c2)c2nn[nH]n2)cc1OC	21.5 µM	> 100 µM
Cc1ccc(S(=O)(=O)OCC(=O)Nc2ccc(C(=O)O)c(O)c2)cc1	29.1 µM	98.6 µM
CN1CCN(Cc2ccc(NC(=O)c3cncc(C#Cc4c(N)ncc5c(F)cccc45)c3)cc2C(F)(F)F)CC1	0.872 µM	1.69 µM
CCC1=C[C@@H]2CN(C1)Cc1c([nH]c3ccccc13)[C@@](C(=O)OC)(c1cc3c(cc1OC)N(C)[C@H]1[C@@](O)(C(=O)OC)[C@H](OC(C)=O)[C@]4(CC)C=CCN5CC[C@]31[C@@H]54)C2	< 0.01 µM	17 µM
CON=C1C[C@]2(C[C@@H]3C[C@@H](C/C=C(\C)C[C@@H](C)/C=C/C=C4\CO[C@@H]5[C@H](O)C(C)=C[C@@H](C(=O)O3)[C@]45O)O2)O[C@H](/C(C)=C/C(C)C)[C@H]1C	12.8 µM	27.5 µM
O=C(/C=C/c1ccco1)Nc1ncc(Cc2cccc(C(F)(F)F)c2)s1	0.111 µM	6.93 µM
COc1ccc(Cc2cc(OC)c(OC)c(OC)c2)cc1	0.312 µM	> 100 µM
COc1ccc2nc3cc(Cl)ccc3c(NCCNCC(O)CO)c2c1 (centres undefined)	0.975 µM	3.16 µM
CC[C@@]1(O)C(=O)OCc2c1cc1n(c2=O)Cc2cc3c(CN(C)C)c(O)ccc3nc2-1	< 0.01 µM and 0.0234 µM	0.0426 µM and 0.108 µM
COc1cc(-c2cc(-c3cccs3)c(C#N)c(N3CCOCC3)n2)cc(OC)c1OC	1.99 µM	7.06 µM
CCCCOC(=O)/C=C\C(=O)NC(N)=O	4.29 µM	19.4 µM

SMILES	GI50	TGI
Cc1ccc(/C=C(/C#N)n2nnc3ncccc32)cc1	2.49 µM	11.2 µM
C[C@@H](Oc1ccc(Oc2cnc3ccc(Cl)cc3n2)cc1)C(=O)O	39.9 µM	> 100 µM
CCNC(=O)Oc1ccc(/C(=C(\C)c2ccc(Cl)cc2)c2ccc(OCCN(CC)CC)cc2)cc1	3.63 µM	14.6 µM
COc1ccc(C2CC(c3ccccc3)=NN2C(=O)c2cc(OC)c(OC)c(OC)c2)cc1O (centres undefined)	0.223 µM	0.613 µM
CC(=O)OC1CC2C(C)(C)CCC[C@]2(C)C2=C1C(O)=C(C(C)C)C(=O)C2=O (some centres undefined)	1.56 µM	3.81 µM
O=C(COc1cccc(/C=C2\COc3ccccc3C2=O)c1)c1ccccc1	1.78 µM	4.6 µM
COc1ccc(C(C)=C(c2ccc(OCCN(C)C)cc2)c2ccc(OCCN(C)C)cc2)cc1	0.489 µM	1.44 µM
COC(=O)[C@H](Cc1ccccc1)NNC(=O)c1csc([C@@H](C[C@H](C(C)C)N(C)C(=O)[C@@H](NC(=O)[C@H]2CCCCN2C)C2CC2)OC(C)=O)n1	0.00652 µM and 0.0025 µM	25 µM and > 100 µM
FC(F)(F)c1cc(Br)cc(-c2cc(-c3ccc4c(c3)OCCO4)[nH]n2)c1	0.345 µM	> 100 µM
COc1ccc(C2=NN(C=O)C(c3ccc(OS(=O)(=O)c4ccc(C)cc4)c(OC)c3)C2)cc1 (centres undefined)	1.44 µM	7.7 µM
CCN(CC)S(=O)(=O)c1ccc(-c2nc(C(Cl)Cl)nc3cc(-c4ccc(F)cc4)nn23)cc1	1.78 µM	6.46 µM
O=C(CN1CCN(CCN2C(=O)c3cccc4cccc(c34)C2=O)CC1)Nc1ccc2ncsc2c1	4.79 µM	22.3 µM
CCCCCCCCCCCCNC(=O)N[C@H](C(=O)N[C@H]1/C=C/CCNC(=O)/C=C/[C@H](C)NC1=O)C(C)C	0.0531 µM	0.218 µM
C[C@]12CCCN1CC1=NNC(=O)c3cc(F)cc4[nH]c2c1c34	13.5 µM	34.5 µM
COc1ccc(CN2C(=O)/C(=C\C(=O)c3ccc(OCCN4CCCC4)cc3)c3ccccc32)cc1	2.07 µM	4.57 µM
Nc1nc(=S)c2ncn(C3OC(CO)C(O)C3O)c2[nH]1 (centres undefined)	0.253 µM	1.69 µM
CCN(CC)c1ccc2c(c1)Oc1nc(N)c(C#N)c(N)c1C2Sc1ccc(F)cc1 (centres undefined)	1.61 µM	3.13 µM
O=c1c2cccc(F)c2sc2c(NCCCNCCO)nc3ccccc3c12	1.63 µM	3.26 µM
COc1cc(N2CCN(C(C)C)CC2)ccc1Nc1nc(Nc2ccc(F)cc2C(=O)NCC(O)CO)c2cc[nH]c2n1 (centres undefined)	4.46 µM	20.5 µM
O=C(NCCCl)NCCN1c2nc3ccccc3cc2Sc2cc3ccccc3nc21	1.43 µM	5.42 µM
CCOC(=O)Nc1ccc2nc(N3CCCCCC3)sc2c1	0.391 µM	3.11 µM
CC(C)C(=O)Nc1ccc(-c2nc(-c3cccc(OCCN4CCOCC4)c3)c(-c3ccnc(Br)c3)[nH]2)cc1	1.89 µM	4.04 µM
Cc1cc(O[C@@H]2O[C@@H](C)[C@H](O)[C@@H](O)[C@H]2O)c2c3c(c(O[C@@H]4O[C@@H](C)[C@H](O)[C@@H](O)[C@H]4O)cc2c1)C(=O)c1c(O)cccc1C3=O	24.5 µM	> 30 µM
NC(=O)c1cc(I)ccc1NC(=O)/C=C/c1ccccc1Cl	0.374 µM	7.67 µM
O=C(O)c1ccc(NCc2nc3ccccc3[nH]2)cc1	> 100 µM	> 100 µM
